Laboratory results reported in PubChem BioAssay AID1259407 (Chemical Carcinogenesis Research Information System (CCRIS), 2018).
Activity calls are given as the source filed them. The rule behind the calls is not given here.

Test system: CCRIS mutagenicity, Ames/micronucleus/aberration tests
Assay: CCRIS mutagenicity studies
[1] = Test System: AMES SALMONELLA TYPHIMURIUM, Strain/Indicator: TA98, Metabolic Activation: HAMSTER, LIVER, S-9, AROCLOR 1254 (10%), Method: PREINCUBATION
[2] = Test System: AMES SALMONELLA TYPHIMURIUM, Strain/Indicator: TA98, Metabolic Activation: NONE, Method: PREINCUBATION
[3] = Test System: AMES SALMONELLA TYPHIMURIUM, Strain/Indicator: TA98, Metabolic Activation: RAT, LIVER, S-9, AROCLOR 1254 (10%), Method: PREINCUBATION
[4] = Test System: AMES SALMONELLA TYPHIMURIUM, Strain/Indicator: TA100, Metabolic Activation: HAMSTER, LIVER, S-9, AROCLOR 1254 (10%), Method: PREINCUBATION
[5] = Test System: AMES SALMONELLA TYPHIMURIUM, Strain/Indicator: TA100, Metabolic Activation: NONE, Method: PREINCUBATION
[6] = Test System: AMES SALMONELLA TYPHIMURIUM, Strain/Indicator: TA100, Metabolic Activation: RAT, LIVER, S-9, AROCLOR 1254 (10%), Method: PREINCUBATION
[7] = Test System: AMES SALMONELLA TYPHIMURIUM, Strain/Indicator: TA1535, Metabolic Activation: NONE, Method: PREINCUBATION
[8] = Test System: AMES SALMONELLA TYPHIMURIUM, Strain/Indicator: TA1535, Metabolic Activation: RAT, LIVER, S-9, AROCLOR 1254 (10%), Method: PREINCUBATION
[9] = Test System: AMES SALMONELLA TYPHIMURIUM, Strain/Indicator: TA1537, Metabolic Activation: NONE, Method: PREINCUBATION
[10] = Test System: AMES SALMONELLA TYPHIMURIUM, Strain/Indicator: TA1537, Metabolic Activation: RAT, LIVER, S-9, AROCLOR 1254 (10%), Method: PREINCUBATION
[11] = Test System: AMES SALMONELLA TYPHIMURIUM, Strain/Indicator: TA1538, Metabolic Activation: NONE, Method: PREINCUBATION
[12] = Test System: AMES SALMONELLA TYPHIMURIUM, Strain/Indicator: TA98, Metabolic Activation: NONE, Method: STANDARD PLATE
[13] = Test System: AMES SALMONELLA TYPHIMURIUM, Strain/Indicator: TA100, Metabolic Activation: NONE, Method: STANDARD PLATE

Measured: mutagenic call

O=P(Oc1ccccc1)(Oc1ccccc1)Oc1ccccc1
inactive: [1] inactive; negative | [2] inactive; negative | [3] inactive; negative | [4] inactive; negative | [5] inactive; negative | [6] inactive; negative | Test System: AMES SALMONELLA TYPHIMURIUM, Strain/Indicator: TA1535, Metabolic Activation: HAMSTER, LIVER, S-9, AROCLOR 1254 (10 OR 50%), Method: PREINCUBATION inactive; negative | [7] inactive; negative | [8] inactive; negative | Test System: AMES SALMONELLA TYPHIMURIUM, Strain/Indicator: TA1537, Metabolic Activation: HAMSTER, LIVER, S-9, AROCLOR 1254 (10 OR 50%), Method: PREINCUBATION inactive; negative | [9] inactive; negative | [10] inactive; negative

C[C@]12CC[C@@H]3c4ccc(O)c(O)c4CC[C@H]3[C@@H]1CCC2=O
inactive: Test System: Ames Salmonella typhimurium, Strain/Indicator: TA98, Metabolic Activation: None, Method: Standard plate inactive; negative | Test System: Ames Salmonella typhimurium, Strain/Indicator: TA98, Metabolic Activation: Rat, liver, S-9, Method: Standard plate inactive; negative | Test System: Ames Salmonella typhimurium, Strain/Indicator: TA100, Metabolic Activation: None, Method: Standard plate inactive; negative | Test System: Ames Salmonella typhimurium, Strain/Indicator: TA100, Metabolic Activation: Rat, liver, S-9, Method: Standard plate inactive; negative

Fc1c(F)c(Cl)c(F)c(Cl)c1F
inactive: [2] inactive; negative | Test System: AMES SALMONELLA TYPHIMURIUM, Strain/Indicator: TA98, Metabolic Activation: RAT, LIVER, S-9, AROCLOR 1254, Method: PREINCUBATION inactive; negative | [5] inactive; negative | Test System: AMES SALMONELLA TYPHIMURIUM, Strain/Indicator: TA100, Metabolic Activation: RAT, LIVER, S-9, AROCLOR 1254, Method: PREINCUBATION inactive; negative | [7] inactive; negative | Test System: AMES SALMONELLA TYPHIMURIUM, Strain/Indicator: TA1535, Metabolic Activation: RAT, LIVER, S-9, AROCLOR 1254, Method: PREINCUBATION inactive; negative | [9] inactive; negative | Test System: AMES SALMONELLA TYPHIMURIUM, Strain/Indicator: TA1537, Metabolic Activation: RAT, LIVER, S-9, AROCLOR 1254, Method: PREINCUBATION inactive; negative | [11] inactive; negative | Test System: AMES SALMONELLA TYPHIMURIUM, Strain/Indicator: TA1538, Metabolic Activation: RAT, LIVER, S-9, AROCLOR 1254, Method: PREINCUBATION inactive; negative | Test System: CHINESE HAMSTER OVARY, Strain/Indicator: CHO-K1-BH4 (HGPRT)/6-THIOGUANINE, Metabolic Activation: NONE, Method: SUSPENSION/PLATE inactive; negative | Test System: CHINESE HAMSTER OVARY, Strain/Indicator: CHO-K1-BH4 (HGPRT)/6-THIOGUANINE, Metabolic Activation: RAT, LIVER, S-9, AROCLOR 1254, Method: SUSPENSION/PLATE inactive; negative

Oc1cc(Cl)cc(Cl)c1O
inactive: Test System: CHINESE HAMSTER V-79, Strain/Indicator: V-79/6-THIOGUANINE, Metabolic Activation: CELL MEDIATED, Method: STANDARD PLATE inactive; negative | Test System: CHINESE HAMSTER V-79, Strain/Indicator: V-79/6-THIOGUANINE, Metabolic Activation: NONE, Method: STANDARD PLATE inactive; negative

[Pt+2].[S-]CCCCl.[S-]CCCCl
inactive: Test System: AMES SALMONELLA TYPHIMURIUM, Strain/Indicator: TA92, Metabolic Activation: NONE, Method: STANDARD PLATE inactive; negative | [12] inactive; negative
active: [13] active; positive | Test System: AMES SALMONELLA TYPHIMURIUM, Strain/Indicator: TA2410, Metabolic Activation: NONE, Method: STANDARD PLATE active; positive

CC(C(=O)O)c1ccc(Oc2nccs2)cc1 (stereo not given)
inactive: [12] inactive; negative | Test System: AMES SALMONELLA TYPHIMURIUM, Strain/Indicator: TA98, Metabolic Activation: RAT, LIVER, S-9, AROCLOR 1254, Method: STANDARD PLATE inactive; negative | [13] inactive; negative | Test System: AMES SALMONELLA TYPHIMURIUM, Strain/Indicator: TA100, Metabolic Activation: RAT, LIVER, S-9, AROCLOR 1254, Method: STANDARD PLATE inactive; negative | Test System: AMES SALMONELLA TYPHIMURIUM, Strain/Indicator: TA1535, Metabolic Activation: NONE, Method: STANDARD PLATE inactive; negative | Test System: AMES SALMONELLA TYPHIMURIUM, Strain/Indicator: TA1535, Metabolic Activation: RAT, LIVER, S-9, AROCLOR 1254, Method: STANDARD PLATE inactive; negative | Test System: AMES SALMONELLA TYPHIMURIUM, Strain/Indicator: TA1537, Metabolic Activation: NONE, Method: STANDARD PLATE inactive; negative | Test System: AMES SALMONELLA TYPHIMURIUM, Strain/Indicator: TA1537, Metabolic Activation: RAT, LIVER, S-9, AROCLOR 1254, Method: STANDARD PLATE inactive; negative | Test System: E. COLI, Strain/Indicator: WP2, Metabolic Activation: NONE, Method: STANDARD PLATE inactive; negative | Test System: E. COLI, Strain/Indicator: WP2, Metabolic Activation: RAT, LIVER, S-9, AROCLOR 1254, Method: STANDARD PLATE inactive; negative | Test System: E. COLI, Strain/Indicator: WP2 UVRA, Metabolic Activation: NONE, Method: STANDARD PLATE inactive; negative | Test System: E. COLI, Strain/Indicator: WP2 UVRA, Metabolic Activation: RAT, LIVER, S-9, AROCLOR 1254, Method: STANDARD PLATE inactive; negative

CN(C)CCCNc1c2ccccc2nc2c(Cl)ccc([N+](=O)[O-])c12
active: [12] active; positive | [13] active; positive

C=C[Si](OCC)(OCC)OCC
inactive: [1] inactive; negative | [2] inactive; negative | [3] inactive; negative | [4] inactive; negative | [5] inactive; negative | [6] inactive; negative | Test System: AMES SALMONELLA TYPHIMURIUM, Strain/Indicator: TA1535, Metabolic Activation: HAMSTER, LIVER, S-9, AROCLOR 1254 (10%), Method: PREINCUBATION inactive; negative | [7] inactive; negative | [8] inactive; negative | Test System: AMES SALMONELLA TYPHIMURIUM, Strain/Indicator: TA1537, Metabolic Activation: HAMSTER, LIVER, S-9, AROCLOR 1254 (10%), Method: PREINCUBATION inactive; negative | [9] inactive; negative | [10] inactive; negative | Test System: AMES SALMONELLA TYPHIMURIUM, Strain/Indicator: TA1538, Metabolic Activation: HAMSTER, LIVER, S-9, AROCLOR 1254 (10%), Method: PREINCUBATION inactive; negative | [11] inactive; negative | Test System: AMES SALMONELLA TYPHIMURIUM, Strain/Indicator: TA1538, Metabolic Activation: RAT, LIVER, S-9, AROCLOR 1254 (10%), Method: PREINCUBATION inactive; negative | Test System: Mouse lymphoma, Strain/Indicator: L5178Y (tk+/tk-), Metabolic Activation: None, Method: Suspension/plate inactive; negative | Test System: Mouse lymphoma, Strain/Indicator: L5178Y (tk+/tk-), Metabolic Activation: Rat, Liver, S-9, Aroclor 1254, Method: Suspension/plate inactive; negative
